Source: patent US9493446B2, “Orexin receptor antagonists which are [ortho bi-(hetero-)aryl]-[2-(meta bi-(hetero-)aryl)-pyrrolidin-1-yl]-methanone derivatives” (Actelion Pharmaceuticals Ltd, priority 2012, dated 2016)
Read-outs that look alike come from different tables or passages of the source.

Tests used:
orexin-1 = orexin-1 (Homo sapiens (Human), UniProt O43613); assay: Intracellular calcium measurement (FLIPR), CHO cells expressing human orexin-1 receptor, 3 nM orexin-A; format: cell-based; conditions: read-out: IC50 OX1
Sequence of orexin-1 (O43613 whole entry): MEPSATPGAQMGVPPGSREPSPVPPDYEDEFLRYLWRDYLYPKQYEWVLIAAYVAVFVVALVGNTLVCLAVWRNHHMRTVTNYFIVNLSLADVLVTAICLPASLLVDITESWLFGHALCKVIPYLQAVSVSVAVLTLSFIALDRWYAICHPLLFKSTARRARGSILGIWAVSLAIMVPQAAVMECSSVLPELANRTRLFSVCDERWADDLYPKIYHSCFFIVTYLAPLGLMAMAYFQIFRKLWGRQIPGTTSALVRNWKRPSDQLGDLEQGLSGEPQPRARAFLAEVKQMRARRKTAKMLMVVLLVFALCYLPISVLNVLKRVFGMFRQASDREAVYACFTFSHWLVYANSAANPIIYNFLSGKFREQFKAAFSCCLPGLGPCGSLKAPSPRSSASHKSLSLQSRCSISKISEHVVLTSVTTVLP
Description: (§1) In Vitro Assay: Intracellular Calcium Measurements:
(§2) Chinese hamster ovary (CHO) cells expressing the human orexin-1 receptor and the human orexin-2 receptor, respectively, are grown in culture medium (Ham F-12 with L-Glutamine) containing 300 μg/mL G418, 100 U/mL penicillin, 100 μg/mL streptomycin and 10% heat inactivated fetal calf serum (FCS). The cells are seeded at 20,000 cells/well into 384-well black clear bottom sterile plates (Greiner). The seeded plates are incubated overnight at 37° C. in 5% CO2.
(§3) Human orexin-A as an agonist is prepared as 1 mM stock solution in MeOH: water (1:1), diluted in HBSS containing 0.1% bovine serum albumin (BSA), NaHCO3: 0.375 g/L and 20 mM HEPES for use in the assay at a final concentration of 3 nM.
(§4) Antagonists are prepared as 10 mM stock solution in DMSO, then diluted in 384-well plates using DMSO followed by a transfer of the dilutions into in HBSS containing 0.1% bovine serum albumin (BSA), NaHCO3: 0.375 g/L and 20 mM HEPES. On the day of the assay, 50 μL of staining buffer (HBSS containing 1% FCS, 20 mM HEPES, NaHCO3: 0.375 g/L, 5 mM probenecid (Sigma) and 3 μM of the fluorescent calcium indicator fluo-4 AM (1 mM stock solution in DMSO, containing 10% pluronic) is added to each well. The 384-well cell-plates are incubated for 50 min at 37° C. in 5% CO2 followed by equilibration at rt for 30 min before measurement.
(§5) Within the Fluorescent Imaging Plate Reader (FLIPR Tetra, Molecular Devices), antagonists are added to the plate in a volume of 10 μL/well, incubated for 120 min and finally 10 μL/well of agonist is added. Fluorescence is measured for each well at 1 second intervals, and the height of each fluorescence peak is compared to the height of the fluorescence peak induced by 3 nM orexin-A with vehicle in place of antagonist. […] Optimized conditions were achieved by adjustment of pipetting speed and cell splitting regime. The calculated IC50 values may fluctuate depending on the daily cellular assay performance. Fluctuations of this kind are known to those skilled in the art.

human orexin-2 receptor = human orexin-2 receptor (Homo sapiens (Human), UniProt O43614); assay: Intracellular calcium measurement (FLIPR), CHO cells expressing human orexin-2 receptor, 3 nM orexin-A; format: cell-based; conditions: read-out: IC50 OX2
Sequence of human orexin-2 receptor (O43614 whole entry): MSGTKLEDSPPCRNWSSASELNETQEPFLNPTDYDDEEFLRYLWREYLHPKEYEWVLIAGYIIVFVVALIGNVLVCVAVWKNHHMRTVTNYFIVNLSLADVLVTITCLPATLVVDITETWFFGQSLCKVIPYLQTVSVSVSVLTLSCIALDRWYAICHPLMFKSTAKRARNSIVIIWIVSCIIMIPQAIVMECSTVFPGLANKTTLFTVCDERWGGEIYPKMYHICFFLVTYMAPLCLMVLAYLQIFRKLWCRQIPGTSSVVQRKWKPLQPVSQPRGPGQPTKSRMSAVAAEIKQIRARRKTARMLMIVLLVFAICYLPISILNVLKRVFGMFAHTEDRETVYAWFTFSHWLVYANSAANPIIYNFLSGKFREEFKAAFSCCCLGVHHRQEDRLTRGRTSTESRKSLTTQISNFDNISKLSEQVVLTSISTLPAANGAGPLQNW
Description: as §1, §2, §3, §4, §5

[1] = CHO cells expressing human orexin-1 receptor, FLIPR, 3 nM orexin-A, geometric mean if determined several times
[2] = CHO cells expressing human orexin-2 receptor, FLIPR, 3 nM orexin-A, geometric mean if determined several times

| IC50 (orexin-1; [1]) [nM] | IC50 (human orexin-2 receptor; [2]) [nM] | SMILES | IC50 (human orexin-2 receptor) [nM] | IC50 (orexin-1) [nM] |
| --- | --- | --- | --- | --- |
| 67 | 28 | CCOc1ncccc1-c1cc([C@@H]2CCCN2C(=O)c2cc(C)ccc2-n2nccn2)on1 [compound 428, {(S)-2-[3-(2-Ethoxy-pyridin-3-yl)-isoxazol-5-yl]-pyrrolidin-1-yl}-(5-methyl-2-[1,2,3]triazol-2-yl-phenyl)-methanone] |  |  |
| 44 | 37 | CCOc1c(F)cccc1-c1noc([C@@H]2CCCN2C(=O)c2ccc(C)cc2-n2nccn2)n1 [compound 289, {(S)-2-[3-(2-Ethoxy-3-fluoro-phenyl)-[1,2,4]oxadiazol-5-yl]-pyrrolidin-1-yl}-(4-methyl-2-[1,2,3]triazol-2-yl-phenyl)-methanone] |  |  |
| 6670 | 915 | Cc1ccc(-n2nccn2)c(C(=O)N2CCC[C@H]2c2nc(-c3ccnc(C)c3)no2)c1 [compound 68, {(S)-2-[3-(2-Methyl-pyridin-4-yl)-[1,2,4]oxadiazol-5-yl]-pyrrolidin-1-yl}-(5-methyl-2-[1,2,3]triazol-2-yl-phenyl)-methanone] |  |  |
| 118 | 7 | COc1ccc(C)c(-c2nc([C@@H]3CCCN3C(=O)c3cc(OC)c(C)cc3-n3nccn3)no2)c1 [compound 386, {(S)-2-[5-(5-Methoxy-2-methyl-phenyl)-[1,2,4]oxadiazol-3-yl]-pyrrolidin-1-yl}-(5-methoxy-4-methyl-2-[1,2,3]triazol-2-yl-phenyl)-methanone] |  |  |
| 3980 | 2880 | C[C@@]1(c2nc(-c3ccccc3)no2)CCCN1C(=O)c1ccccc1-n1nccn1 [Example 537, [(S)-2-Methyl-2-(3-phenyl-[1,2,4]oxadiazol-5-yl)-pyrrolidin-1-yl]-(2-[1,2,3]triazol-2-yl-phenyl)-methanone] |  |  |
| 68 | 14 | Cc1ccc(C(=O)N2CCC[C@H]2c2noc(-c3cccc(C)c3C)n2)c(-n2nccn2)c1 [compound 391, {(S)-2-[5-(2,3-Dimethyl-phenyl)-[1,2,4]oxadiazol-3-yl]-pyrrolidin-1-yl}-(4-methyl-2-[1,2,3]triazol-2-yl-phenyl)-methanone] |  |  |
| 600 | 177 | Cc1ccc(-n2nccn2)c(C(=O)N2CCC[C@H]2c2nc(-c3ccc(F)c(F)c3)no2)c1 [compound 20, {(S)-2-[3-(3,4-Difluoro-phenyl)-[1,2,4]oxadiazol-5-yl]-pyrrolidin-1-yl}-(5-methyl-2-[1,2,3]triazol-2-yl-phenyl)-methanone] |  |  |
| 28 | 5 | CCOc1ccccc1-c1cnc([C@@H]2CCCN2C(=O)c2cc(C)ccc2-n2nccn2)[nH]1 [compound 526, {(S)-2-[5-(2-Ethoxy-phenyl)-1H-imidazol-2-yl]-pyrrolidin-1-yl}-(5-methyl-2-[1,2,3]triazol-2-yl-phenyl)-methanone] |  |  |
| 184 | 118 | Cc1ccc(-n2nccn2)c(C(=O)N2CCC[C@H]2c2nnc(-c3ccccc3OC(F)(F)F)o2)c1 [compound 442, (5-Methyl-2-[1,2,3]triazol-2-yl-phenyl)-{(S)-2-[5-(2-trifluoromethoxy-phenyl)-[1,3,4]oxadiazol-2-yl]-pyrrolidin-1-yl}-methanone] |  |  |
| 57 | 10 | Cc1ccc(C)c(-c2nc([C@@H]3CCCN3C(=O)c3ccc(C)cc3-n3nccn3)no2)c1 [compound 393, {(S)-2-[5-(2,5-Dimethyl-phenyl)-[1,2,4]oxadiazol-3-yl]-pyrrolidin-1-yl}-(4-methyl-2-[1,2,3]triazol-2-yl-phenyl)-methanone] |  |  |
| 249 | 314 | Cc1ccc(-n2nccn2)c(C(=O)N2CCC[C@H]2c2noc(-c3cccc(C(F)(F)F)n3)n2)c1 [compound 314, (5-Methyl-2-[1,2,3]triazol-2-yl-phenyl)-{(S)-2-[5-(6-trifluoromethyl-pyridin-2-yl)-[1,2,4]oxadiazol-3-yl]-pyrrolidin-1-yl}-methanone] |  |  |
| 254 | 6 | Cc1ccc(-n2nccn2)c(C(=O)N2CCC[C@H]2c2nc(-c3cccc4c3ccn4C)no2)c1 [compound 74, {(S)-2-[3-(1-Methyl-1H-indol-4-yl)-[1,2,4]oxadiazol-5-yl]-pyrrolidin-1-yl}-(5-methyl-2-[1,2,3]triazol-2-yl-phenyl)-methanone] |  |  |
| 818 | 347 | O=C(c1ccc(F)cc1-n1cccn1)N1CCC[C@H]1c1nc(-c2ccccc2OC(F)(F)F)no1 [compound 162, (4-Fluoro-2-pyrazol-1-yl-phenyl)-{(S)-2-[3-(2-trifluoromethoxy-phenyl)-[1,2,4]oxadiazol-5-yl]-pyrrolidin-1-yl}-methanone] |  |  |
| 258 | 81 | Cc1ccc(C(=O)N2CCC[C@H]2c2cc(-c3ccccc3OC(F)(F)F)n[nH]2)c(-n2nccn2)c1 [compound 533, (4-Methyl-2-[1,2,3]triazol-2-yl-phenyl)-{(S)-2-[5-(2-trifluoromethoxy-phenyl)-2H-pyrazol-3-yl]-pyrrolidin-1-yl}-methanone] |  |  |
| 812 | 181 | COc1cccc(-c2nnc([C@@H]3CCCN3C(=O)c3cc(C)ccc3-n3nccn3)[nH]2)c1 [compound 513, {(S)-2-[5-(3-Methoxy-phenyl)-4H-[1,2,4]triazol-3-yl]-pyrrolidin-1-yl}-(5-methyl-2-[1,2,3]triazol-2-yl-phenyl)-methanone] |  |  |
| 89 | 233 | Cc1ccc(-n2nccn2)c(C(=O)N2CCC[C@H]2c2nc(-c3cccnc3OC3CCCC3)no2)c1 [compound 49, {(S)-2-[3-(2-Cyclopentyloxy-pyridin-3-yl)-[1,2,4]oxadiazol-5-yl]-pyrrolidin-1-yl}-(5-methyl-2-[1,2,3]triazol-2-yl-phenyl)-methanone] |  |  |
| 18 | 11 | Cc1ccc(C(=O)N2CCC[C@H]2c2noc(-c3ccccc3OC(F)(F)F)n2)c(-n2nccn2)c1 [compound 374, (4-Methyl-2-[1,2,3]triazol-2-yl-phenyl)-{(S)-2-[5-(2-trifluoromethoxy-phenyl)-[1,2,4]oxadiazol-3-yl]-pyrrolidin-1-yl}-methanone] |  |  |

| SMILES | IC50 (orexin-1; [1]) [nM] | IC50 (human orexin-2 receptor; [2]) [nM] | IC50 (human orexin-2 receptor) [nM] | IC50 (orexin-1) [nM] |
| --- | --- | --- | --- | --- |
| COc1ccccc1-c1nnc([C@@H]2CCCN2C(=O)c2ccc(Cl)cc2-n2nccn2)[nH]1 [compound 470] | 57 |  | 31 |  |
| CCOc1ncccc1-c1nc([C@@H]2CCCN2C(=O)c2cc(Cl)ccc2-n2nccn2)no1 [compound 346] | 23 | 2 |  |  |
| Cc1ccc(C(=O)N2CCC[C@H]2c2cc(-c3cccc(Cl)c3C)n[nH]2)c(-n2nccn2)c1 [compound 531] |  | 57 |  | 255 |
| Cc1cccc(-c2oc(C)nc2C(=O)N2CCC[C@H]2c2nc(-c3cccc(Cl)c3C)no2)c1 [compound 91] | 104 | 91 |  |  |
| COc1cc(C(=O)N2CCC[C@H]2c2nc(-c3cccc(Cl)c3C)no2)c(-n2nccn2)cc1Cl [compound 280] | 54 | 4 |  |  |
| CCCOc1ccccc1-c1noc([C@@H]2CCCN2C(=O)c2cc(C)ccc2-n2nccn2)n1 [compound 45] | 112 | 125 |  |  |
| COc1c(Cl)cccc1-c1nc([C@@H]2CCCN2C(=O)c2cc(C)c(C)cc2-n2nccn2)no1 [compound 360] | 7 | 1 |  |  |
| COc1c(Cl)cccc1-c1nc([C@@H]2CCCN2C(=O)c2cc(C)ccc2-n2nccn2)no1 [compound 351] |  | 4 |  | 22 |
| COc1ccc(C)c(-c2nc([C@@H]3CCCN3C(=O)c3cc(OC)c(Cl)cc3-n3nccn3)no2)c1 [compound 353] | 54 | 5 |  |  |
| Cc1c(Cl)cccc1-c1noc([C@@H]2CCCN2C(=O)c2ccc(F)cc2-n2cccn2)n1 [compound 111] | 1150 | 261 |  |  |
| O=C(c1ccoc1)N1CCC[C@H]1c1nc(-c2ccccc2)no1 [Ref 4] | > 8500 | > 10000 |  |  |
| Cc1cc(C(=O)N2CCC[C@H]2c2noc(-c3cccc(Cl)c3C)n2)c(-n2nccn2)cc1C [compound 321] |  | 1 |  | 7 |
| CCOc1ncccc1-c1nnc([C@@H]2CCCN2C(=O)c2cc(OC)c(Cl)cc2-n2nccn2)[nH]1 [compound 478] | 27 | 11 |  |  |
| COc1cc(C(=O)N2CCC[C@H]2c2nnc(-c3cccc(Cl)c3C)o2)c(-n2nccn2)cc1Cl [compound 446] | 82 | 6 |  |  |
| COc1cc(C(=O)N2CCC[C@H]2c2nc(-c3cccc(Cl)c3C)no2)c(-c2ncccn2)cc1C [compound 269] | 177 | 12 |  |  |
